The assay addresses T1, gp120-CD4 binding (Human immunodeficiency virus type 1 group M subtype B, UniProt P03375).
T1 construct: coated with 100 ng/well of either gp120 IIIB or gp120 BaL
On the set-up: species or system HIV-1. The settings on record: purified commercial compounds at 200 μg/ml. Here is the method: CD4-HIV-1 gp120 binding and its inhibition were measured by ELISA. Wells of 96-well polystyrene plates (Immulon II, Dynatech Laboratories, Inc., Chantilly, Va.) were coated with 100 ng/well of either gp120 IIIB or gp120 BaL, and post-coated as described [Neurath, A. R., Strick, N., Li, Y. Y., Debnath, A. K.: Cellulose acetate phthalate, a common pharmaceutical excipient, inactivates HIV-1 and blocks the coreceptor binding site on the virus envelope glycoprotein gp120, BMC Infect. Dis., (2001), 1:17]. […] The wells were washed 5× with TS. Biotinyl-CD4 (1 μg/ml) in TS-1% gelatin was added to the wells for 5 hours at 37° C. After washing 1× with TS-0.1% Tween 20 and 5× with TS, horseradish peroxidase (HRP)-streptavidin (0.625 μg/ml; Amersham, Arlington Heights, Ill.) in TS-2% gelatin-0.05% Tween 20 was added. After 30 minutes at 37° C., the wells were washed 4 x with TS-0.1% Tween 20 and 2× with TS. Bound HRP-was detected using a kit from Kirkegaard and Perry Laboratories Inc. (Gaithersburg, Md.) and the absorbance (A) read at 450 nm. […] In an alternative assay, CD4 (500 ng/ml) was mixed with biotinyl-gp120 (1 μg/ml) in the presence or absence of inhibitors for 30 minutes at 20° C. Serial dilutions of the mixtures were added to wells coated with the anti-CD4 mAb OKT 4 (Ortho-Clinical Diagnostics, Rochester, N.Y.) and captured biotinyl-gp120 was detected with HRP-streptavidin as described above. To measure binding to gp120 of antibodies to gp120 peptides, the respective rabbit antisera were diluted 50-fold in a mixture of FBS and goat serum (9:1) containing 0.1% Tween 20 (pH 8.0) and added to gp120 wells. Bound IgG was detected with HRP labeled anti-rabbit IgG (Sigma, St. Louis, Mo.; 1 μg/ml in TS-10% goat serum-0.1% Tween 20). […] Briefly, FLSC (125 ng/ml) in the absence or presence of graded amounts of inhibitors was added to Cf2Th/synCCR5 cells fixed with 5% formaldehyde in wells of 96-well plates.
Turning to `O=C(O)/C=C/c1ccc(O)c(O)c1` [caffeic acid], the “blocking of gp120-CD4 binding (ELISA)” value was “did not block”. Next, `O=c1c(O)c(-c2ccc(O)c(O)c2)oc2cc(O)cc(O)c12` [quercetin]: “did not block”; `C[C@H]1[C@H](C)CC[C@]2(C(=O)O)CC[C@]3(C)C(=CC[C@@H]4[C@@]5(C)CC[C@H](O)C(C)(C)[C@@H]5CC[C@]43C)[C@H]12` [ursolic acid]: “did not block”.

catechin: the “blocking of gp120-CD4 binding (ELISA)” value is on record as “did not block”.

The record behind these values is patent publication US20060062866A1, “Starch-pomegranate juice complex as an HIV entry inhibitor and topical microbicide” (NEW YORK BLOOD CENTER, INC., priority 2004, published 2006).
